{"source": "patent US20070243558A1", "about": "“Peptide Stabilization” (priority 2004, published 2007)", "key": {"[1]": {"experiment": "Stability of the same analytes in serum samples, with and without 5% DMSO (Table 3)", "type": "physicochemical", "source_text": "Table 3 is a test corresponding to the test of Table 2, but where the ten samples to be tested were serum samples rather than plasma samples."}, "[2]": {"experiment": "Storage stability of analytes in serum sample without stabilizer (background statement)", "type": "physicochemical", "conditions": "serum sample", "source_text": "In connection with said determinations and sample handling the poor stability of gastrin-17 has proven to be a problem, due to the fact that it decomposes rapidly in the sample. […] This is in contrast to pepsinogen I and II, which retain their activity at room temperature for many days, and Helicobacter pylori antibodies, which survive for at least three days under refrigerator conditions."}, "[3]": {"experiment": "Preservation of gastrin-17 in 5% DMSO/serum or plasma solutions", "type": "physicochemical", "conditions": "5% (vol./vol.) DMSO/serum or plasma solutions, even at room temperature"}, "[4]": {"conditions": "for gastrin-17 concentration, Avg.: average of days 0-3"}, "[5]": {"conditions": "room temperature", "experimental": "The effect of adding DMSO was tested on pepsinogen I, pepsinogen II, Helicobacter pylori antibodies and gastrin-17. The results are indicated at day 0 and day 3."}}, "note": "Like-named read-outs stand apart in the source and are kept apart here."}
{"substance": "gastrin-17 [Gastrin 17]", "values": [{"measurement": "Gastrin 17 concentration", "setting": "[1]; serum sample PL411s, 0% DMSO", "result": 33.4, "unit": "pmol/L"}, {"measurement": "Gastrin 17 concentration", "setting": "[1]; serum sample PL411s, 5% DMSO", "result": 32.5, "unit": "pmol/L"}, {"measurement": "Gastrin 17 concentration", "setting": "[1]; serum sample PL420b, 0% DMSO", "result": 24.1, "unit": "pmol/L"}, {"measurement": "Gastrin 17 concentration", "setting": "[1]; serum sample PL420b, 5% DMSO", "result": 20.1, "unit": "pmol/L"}, {"measurement": "Gastrin 17 concentration", "setting": "[1]; serum sample PL426s, 0% DMSO", "result": 1.1, "unit": "pmol/L"}, {"measurement": "Gastrin 17 concentration", "setting": "[1]; serum sample PL426s, 5% DMSO", "result": 1.9, "unit": "pmol/L"}, {"measurement": "Gastrin 17 concentration", "setting": "[1]; serum sample PL438s, 0% DMSO", "result": 9.3, "unit": "pmol/L"}, {"measurement": "Gastrin 17 concentration", "setting": "[1]; serum sample PL438s, 5% DMSO", "result": 9.8, "unit": "pmol/L"}, {"measurement": "Gastrin 17 concentration", "setting": "[1]; serum sample PL439s, 0% DMSO", "result": 7.4, "unit": "pmol/L"}, {"measurement": "Gastrin 17 concentration", "setting": "[1]; serum sample PL439s, 5% DMSO", "result": 8.5, "unit": "pmol/L"}, {"measurement": "Gastrin 17 concentration", "setting": "[1]; serum sample PL447b, 0% DMSO", "result": 18.2, "unit": "pmol/L"}, {"measurement": "Gastrin 17 concentration", "setting": "[1]; serum sample PL447b, 5% DMSO", "result": 21.7, "unit": "pmol/L"}, {"measurement": "Gastrin 17 concentration", "setting": "[1]; serum sample PL454s, 0% DMSO", "result": 4.4, "unit": "pmol/L"}, {"measurement": "Gastrin 17 concentration", "setting": "[1]; serum sample PL454s, 5% DMSO", "result": 5.6, "unit": "pmol/L"}, {"measurement": "Gastrin 17 concentration", "setting": "[1]; serum sample PL455b, 0% DMSO", "result": 15.6, "unit": "pmol/L"}, {"measurement": "Gastrin 17 concentration", "setting": "[1]; serum sample PL455b, 5% DMSO", "result": 17.6, "unit": "pmol/L"}, {"measurement": "Gastrin 17 concentration", "setting": "[1]; serum sample PL457b, 0% DMSO", "result": 3.3, "unit": "pmol/L"}, {"measurement": "Gastrin 17 concentration", "setting": "[1]; serum sample PL457b, 5% DMSO", "result": 6.0, "unit": "pmol/L"}, {"measurement": "Gastrin 17 concentration", "setting": "[1]; serum sample PL458s, 0% DMSO", "result": 5.4, "unit": "pmol/L"}, {"measurement": "Gastrin 17 concentration", "setting": "[1]; serum sample PL458s, 5% DMSO", "result": 2.2, "unit": "pmol/L"}, {"measurement": "activity in samples with added 5% (vol./vol.) of DMSO", "setting": "[1]; serum samples", "result": "generally retained activity"}, {"measurement": "state of the analyte in a serum sample after a day", "setting": "[2]; after a day, refrigerating conditions", "result": "degraded completely"}, {"measurement": "time after which the concentration in a serum sample starts to decrease clearly", "setting": "[2]; no stabilizer", "result": "three"}, {"measurement": "time for which gastrin-17 was preserved", "setting": "[3]", "result": "at least three"}, {"measurement": "gastrin-17 concentration, Avg.", "setting": "[4]; EDTA-plasma sample PL459S, 0% DMSO", "result": 4.1, "unit": "pmol/L"}, {"measurement": "gastrin-17 concentration", "setting": "[4]; EDTA-plasma sample PL459S, 0% DMSO, day 0", "result": 8.5, "unit": "pmol/L"}, {"measurement": "gastrin-17 concentration", "setting": "[4]; EDTA-plasma sample PL459S, 0% DMSO, day 1", "result": 3.6, "unit": "pmol/L"}, {"measurement": "gastrin-17 concentration", "setting": "[4]; EDTA-plasma sample PL459S, 0% DMSO, day 2", "result": 2.7, "unit": "pmol/L"}, {"measurement": "gastrin-17 concentration", "setting": "[4]; EDTA-plasma sample PL459S, 0% DMSO, day 3", "result": 1.5, "unit": "pmol/L"}, {"measurement": "gastrin-17 concentration, Avg.", "setting": "[4]; EDTA-plasma sample PL459S, 5% DMSO", "result": 5.6, "unit": "pmol/L"}, {"measurement": "gastrin-17 concentration", "setting": "[4]; EDTA-plasma sample PL459S, 5% DMSO, day 0", "result": 6.3, "unit": "pmol/L"}, {"measurement": "gastrin-17 concentration", "setting": "[4]; EDTA-plasma sample PL459S, 5% DMSO, day 1", "result": 5.4, "unit": "pmol/L"}, {"measurement": "gastrin-17 concentration", "setting": "[4]; EDTA-plasma sample PL459S, 5% DMSO, day 2", "result": 5.2, "unit": "pmol/L"}, {"measurement": "gastrin-17 concentration", "setting": "[4]; EDTA-plasma sample PL459S, 5% DMSO, day 3", "result": 5.4, "unit": "pmol/L"}, {"measurement": "gastrin-17 concentration, Avg.", "setting": "[4]; EDTA-plasma sample PL460s, 0% DMSO", "result": 6.0, "unit": "pmol/L"}, {"measurement": "gastrin-17 concentration", "setting": "[4]; EDTA-plasma sample PL460s, 0% DMSO, day 0", "result": 7.9, "unit": "pmol/L"}, {"measurement": "gastrin-17 concentration", "setting": "[4]; EDTA-plasma sample PL460s, 0% DMSO, day 1", "result": 5.8, "unit": "pmol/L"}, {"measurement": "gastrin-17 concentration", "setting": "[4]; EDTA-plasma sample PL460s, 0% DMSO, day 2", "result": 5.8, "unit": "pmol/L"}, {"measurement": "gastrin-17 concentration", "setting": "[4]; EDTA-plasma sample PL460s, 0% DMSO, day 3", "result": 4.6, "unit": "pmol/L"}, {"measurement": "gastrin-17 concentration, Avg.", "setting": "[4]; EDTA-plasma sample PL460s, 5% DMSO", "result": 6.0, "unit": "pmol/L"}, {"measurement": "gastrin-17 concentration", "setting": "[4]; EDTA-plasma sample PL460s, 5% DMSO, day 0", "result": 6.3, "unit": "pmol/L"}, {"measurement": "gastrin-17 concentration", "setting": "[4]; EDTA-plasma sample PL460s, 5% DMSO, day 1", "result": 5.5, "unit": "pmol/L"}, {"measurement": "gastrin-17 concentration", "setting": "[4]; EDTA-plasma sample PL460s, 5% DMSO, day 2", "result": 6.1, "unit": "pmol/L"}, {"measurement": "gastrin-17 concentration", "setting": "[4]; EDTA-plasma sample PL460s, 5% DMSO, day 3", "result": 6.0, "unit": "pmol/L"}, {"measurement": "gastrin-17 concentration, Avg.", "setting": "[4]; EDTA-plasma sample PL461s, 0% DMSO", "result": 12.4, "unit": "pmol/L"}, {"measurement": "gastrin-17 concentration", "setting": "[4]; EDTA-plasma sample PL461s, 0% DMSO, day 0", "result": 26.0, "unit": "pmol/L"}, {"measurement": "gastrin-17 concentration", "setting": "[4]; EDTA-plasma sample PL461s, 0% DMSO, day 1", "result": 8.7, "unit": "pmol/L"}, {"measurement": "gastrin-17 concentration", "setting": "[4]; EDTA-plasma sample PL461s, 0% DMSO, day 2", "result": 8.5, "unit": "pmol/L"}, {"measurement": "gastrin-17 concentration", "setting": "[4]; EDTA-plasma sample PL461s, 0% DMSO, day 3", "result": 6.1, "unit": "pmol/L"}, {"measurement": "gastrin-17 concentration, Avg.", "setting": "[4]; EDTA-plasma sample PL461s, 5% DMSO", "result": 21.8, "unit": "pmol/L"}, {"measurement": "gastrin-17 concentration", "setting": "[4]; EDTA-plasma sample PL461s, 5% DMSO, day 0", "result": 24.3, "unit": "pmol/L"}, {"measurement": "gastrin-17 concentration", "setting": "[4]; EDTA-plasma sample PL461s, 5% DMSO, day 1", "result": 21.6, "unit": "pmol/L"}, {"measurement": "gastrin-17 concentration", "setting": "[4]; EDTA-plasma sample PL461s, 5% DMSO, day 2", "result": 19.9, "unit": "pmol/L"}, {"measurement": "gastrin-17 concentration", "setting": "[4]; EDTA-plasma sample PL461s, 5% DMSO, day 3", "result": 21.2, "unit": "pmol/L"}, {"measurement": "Gastrin 17 concentration", "setting": "[5]; EDTA-plasma sample PL466s, 0% DMSO, day 0", "result": 7.6, "unit": "pmol/L"}, {"measurement": "Gastrin 17 concentration", "setting": "[5]; EDTA-plasma sample PL466s, 0% DMSO, day 3", "result": 1.6, "unit": "pmol/L"}, {"measurement": "Gastrin 17 concentration", "setting": "[5]; EDTA-plasma sample PL466s, 5% DMSO, day 0", "result": 7.8, "unit": "pmol/L"}, {"measurement": "Gastrin 17 concentration", "setting": "[5]; EDTA-plasma sample PL466s, 5% DMSO, day 3", "result": 6.9, "unit": "pmol/L"}, {"measurement": "Gastrin 17 concentration", "setting": "[5]; EDTA-plasma sample PL467s, 0% DMSO, day 0", "result": 5.3, "unit": "pmol/L"}, {"measurement": "Gastrin 17 concentration", "setting": "[5]; EDTA-plasma sample PL467s, 0% DMSO, day 3", "result": 2.9, "unit": "pmol/L"}, {"measurement": "Gastrin 17 concentration", "setting": "[5]; EDTA-plasma sample PL467s, 5% DMSO, day 0", "result": 4.4, "unit": "pmol/L"}, {"measurement": "Gastrin 17 concentration", "setting": "[5]; EDTA-plasma sample PL467s, 5% DMSO, day 3", "result": 4.5, "unit": "pmol/L"}, {"measurement": "Gastrin 17 concentration", "setting": "[5]; EDTA-plasma sample PL471s, 0% DMSO, day 0", "result": 1.3, "unit": "pmol/L"}, {"measurement": "Gastrin 17 concentration", "setting": "[5]; EDTA-plasma sample PL471s, 0% DMSO, day 3", "result": 0.2, "unit": "pmol/L"}, {"measurement": "Gastrin 17 concentration", "setting": "[5]; EDTA-plasma sample PL471s, 5% DMSO, day 0", "result": 1.7, "unit": "pmol/L"}, {"measurement": "Gastrin 17 concentration", "setting": "[5]; EDTA-plasma sample PL471s, 5% DMSO, day 3", "result": 1.4, "unit": "pmol/L"}, {"measurement": "Gastrin 17 concentration", "setting": "[5]; EDTA-plasma sample PL472s, 0% DMSO, day 0", "result": 20, "unit": "pmol/L"}, {"measurement": "Gastrin 17 concentration", "setting": "[5]; EDTA-plasma sample PL472s, 0% DMSO, day 3", "result": 2.9, "unit": "pmol/L"}, {"measurement": "Gastrin 17 concentration", "setting": "[5]; EDTA-plasma sample PL472s, 5% DMSO, day 0", "result": 21, "unit": "pmol/L"}, {"measurement": "Gastrin 17 concentration", "setting": "[5]; EDTA-plasma sample PL472s, 5% DMSO, day 3", "result": 14.3, "unit": "pmol/L"}, {"measurement": "Gastrin 17 concentration", "setting": "[5]; EDTA-plasma sample PL473s, 0% DMSO, day 0", "result": 3.7, "unit": "pmol/L"}, {"measurement": "Gastrin 17 concentration", "setting": "[5]; EDTA-plasma sample PL473s, 0% DMSO, day 3", "result": 0.6, "unit": "pmol/L"}, {"measurement": "Gastrin 17 concentration", "setting": "[5]; EDTA-plasma sample PL473s, 5% DMSO, day 0", "result": 3.8, "unit": "pmol/L"}, {"measurement": "Gastrin 17 concentration", "setting": "[5]; EDTA-plasma sample PL473s, 5% DMSO, day 3", "result": 3.4, "unit": "pmol/L"}]}
